Results from patent US4416884A, “Piperazinylbenzoheterocyclic compounds” (Otsuka Pharmaceutical Co., Ltd., priority 1978, dated 1983).
Converted amounts (≈) assume the structure as drawn. Like-named read-outs stand apart in the source and are kept apart here.

Experiments:
Type in all cases: cell-based
[1] = system: Test Organism 1 (Escherichia Coli NIHJ); assay: influence of the addition of horse serum on the MIC
[2] = system: Bacillus subtilis PCI 219; assay: antimicrobial activity, serial dilution method on agar plate; settings: read-out: Minimum Inhibitory Concentration
In short: (§1)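 Serial dilution on Heart Infusion agar; inoculum 1×10^8 cells/ml (O.D. 660 mμ 0.07–0.16) or 1×10^6 cells/ml diluted from it; MIC in mcg/ml.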

Proteus rettgeri NIH 96 = assay: as above; settings: Providencia rettgeri, read-out: Minimum Inhibitory Concentration
In short: as §1

[3] = system: Streptococcus pneumoniae Type I; assay: as above; settings: inoculum 1 × 10^8 cells/ml, read-out: Minimum Inhibitory Concentration
In short: as §1

[4] = system: Salmonella typhi 0-901 (NCTC 8393); assay: as above; settings: Salmonella enterica
In short: as §1

[5] = system: Serattia marcescens IFO 12648; assay: as above; settings: read-out: Minimum Inhibitory Concentration
In short: as §1

[6] = system: Streptococcus pyogenes IID Cook; assay: as above; settings: inoculum 1 × 10^8 cells/ml, read-out: Minimum Inhibitory Concentration
In short: as §1

[7] = system: Enterobacter aerogenes IFO 12979; assay: as above; settings: Klebsiella aerogenes, read-out: Minimum Inhibitory Concentration
In short: as §1

Klebsiella pneumoniae = assay: as above; settings: read-out: Minimum Inhibitory Concentration
In short: as §1

[8] = system: Staphylococcus aureus FDA 209 P; assay: as above; settings: read-out: Minimum Inhibitory Concentration
In short: as §1

[9] = system: Escherichia Coli NIHJ JC-2 (IFO 12734); assay: as above; settings: Escherichia coli, read-out: Minimum Inhibitory Concentration
In short: as §1

[10] = system: Streptococcus pneumoniae Type III; assay: as above; settings: inoculum 1 × 10^8 cells/ml, read-out: Minimum Inhibitory Concentration
In short: as §1

[11] = system: Pseudomonas putida IFO 13696; assay: as above; settings: read-out: Minimum Inhibitory Concentration
In short: as §1

Shigella Sonnei EW 33 = assay: as above; settings: read-out: Minimum Inhibitory Concentration
In short: as §1

[12] = system: Klebsiella pneumoniae ST-101; assay: as above; settings: read-out: Minimum Inhibitory Concentration
In short: as §1

[13] = system: Pseudomonas aeruginosa NCTC 10490; assay: as above; settings: read-out: Minimum Inhibitory Concentration
In short: as §1

[14] = system: Pseudomonas aeruginosa E-2; assay: as above; settings: read-out: Minimum Inhibitory Concentration
In short: as §1

[15] = system: Corinebacterium diphteriae; assay: as above; settings: read-out: Minimum Inhibitory Concentration
In short: as §1

Enterobacter cloacae = assay: as above; settings: read-out: Minimum Inhibitory Concentration
In short: as §1

[16] = system: Yersinia enterocolitica 0-5; assay: as above; settings: Yersinia enterocolitica, 05; inoculum 1 × 10^8 cells/ml; read-out: Minimum Inhibitory Concentration

CC1CCc2cc(F)cc3c(=O)c(C(=O)O)cn1c23 (stereo not drawn) [F]
MIC ([1]; horse serum 0%, inoculum 10^6, read-out: Minimum Inhibitory Concentration): 1.6 µg/mL (≈ 6.12 µM)
MIC ([1]; horse serum 0%, inoculum 10^8, read-out: Minimum Inhibitory Concentration): 1.6 µg/mL (≈ 6.12 µM)
MIC ([1]; horse serum 10%, inoculum 10^6, read-out: Minimum Inhibitory Concentration): 3.1 µg/mL (≈ 11.9 µM)
MIC ([1]; horse serum 10%, inoculum 10^8, read-out: Minimum Inhibitory Concentration): 3.1 µg/mL (≈ 11.9 µM)
MIC ([1]; horse serum 20%, inoculum 10^6, read-out: Minimum Inhibitory Concentration): 3.1 µg/mL (≈ 11.9 µM)
MIC ([1]; horse serum 20%, inoculum 10^8, read-out: Minimum Inhibitory Concentration): 6.3 µg/mL (≈ 24.1 µM)
MIC ([1]; horse serum 40%, inoculum 10^6, read-out: Minimum Inhibitory Concentration): 12.5 µg/mL (≈ 47.8 µM)
MIC ([1]; horse serum 40%, inoculum 10^8, read-out: Minimum Inhibitory Concentration): 12.5 µg/mL (≈ 47.8 µM)
MIC ([2]; PCI219, inoculum 1 × 10^6 cells/ml): 0.2 µg/mL (≈ 0.766 µM)
MIC ([2]; PCI219, inoculum 1 × 10^8 cells/ml): 0.4 µg/mL (≈ 1.53 µM)
MIC (Proteus rettgeri NIH 96; NIH96, inoculum 1 × 10^6 cells/ml): 0.1 µg/mL (≈ 0.383 µM)
MIC (Proteus rettgeri NIH 96; NIH96, inoculum 1 × 10^8 cells/ml): 0.2 µg/mL (≈ 0.766 µM)
MIC [3]: > 100 µg/mL
MIC ([4]; read-out: Minimum Inhibitory Concentration, inoculum 1 × 10^6 cells/ml): 0.2 µg/mL (≈ 0.766 µM)
MIC ([4]; read-out: Minimum Inhibitory Concentration, inoculum 1 × 10^8 cells/ml): 0.2 µg/mL (≈ 0.766 µM)
MIC ([5]; inoculum 1 × 10^6 cells/ml): 0.4 µg/mL (≈ 1.53 µM)
MIC ([5]; inoculum 1 × 10^8 cells/ml): 0.8 µg/mL (≈ 3.06 µM)
MIC [6]: > 100 µg/mL
MIC ([7]; IFO12979, inoculum 1 × 10^6 cells/ml): 0.2 µg/mL (≈ 0.766 µM)
MIC ([7]; IFO12979, inoculum 1 × 10^8 cells/ml): 0.4 µg/mL (≈ 1.53 µM)
MIC (Klebsiella pneumoniae; inoculum 1 × 10^6 cells/ml): 0.4 µg/mL (≈ 1.53 µM)
MIC (Klebsiella pneumoniae; inoculum 1 × 10^8 cells/ml): 0.8 µg/mL (≈ 3.06 µM)
MIC ([8]; FDA209, inoculum 1 × 10^6 cells/ml): 1.6 µg/mL (≈ 6.12 µM)
MIC ([8]; FDA209, inoculum 1 × 10^8 cells/ml): 3.1 µg/mL (≈ 11.9 µM)
MIC ([9]; inoculum 1 × 10^6 cells/ml): 0.4 µg/mL (≈ 1.53 µM)
MIC ([9]; inoculum 1 × 10^8 cells/ml): 0.8 µg/mL (≈ 3.06 µM)
MIC [10]: > 100 µg/mL
MIC ([11]; IFO13696, inoculum 1 × 10^6 cells/ml): 125 µg/mL (≈ 478 µM)
MIC ([11]; IFO13696, inoculum 1 × 10^8 cells/ml): 25 µg/mL (≈ 95.7 µM)
MIC (Shigella Sonnei EW 33; inoculum 1 × 10^6 cells/ml): 0.8 µg/mL (≈ 3.06 µM)
MIC (Shigella Sonnei EW 33; inoculum 1 × 10^8 cells/ml): 0.8 µg/mL (≈ 3.06 µM)
MIC ([12]; ST101, inoculum 1 × 10^6 cells/ml): 0.1 µg/mL (≈ 0.383 µM)
MIC ([12]; ST101, inoculum 1 × 10^8 cells/ml): 0.2 µg/mL (≈ 0.766 µM)
MIC ([13]; NCTC10490, inoculum 1 × 10^6 cells/ml): 12.5 µg/mL (≈ 47.8 µM)
MIC ([13]; NCTC10490, inoculum 1 × 10^8 cells/ml): 25 µg/mL (≈ 95.7 µM)
MIC ([14]; E2, inoculum 1 × 10^6 cells/ml): 50 µg/mL (≈ 191 µM)
MIC ([14]; E2, inoculum 1 × 10^8 cells/ml): 50 µg/mL (≈ 191 µM)
MIC ([15]; inoculum 1 × 10^6 cells/ml): > 6.3 µg/mL
MIC ([15]; inoculum 1 × 10^8 cells/ml): > 25 µg/mL
MIC (Enterobacter cloacae; inoculum 1 × 10^6 cells/ml): 0.2 µg/mL (≈ 0.766 µM)
MIC (Enterobacter cloacae; inoculum 1 × 10^8 cells/ml): 0.4 µg/mL (≈ 1.53 µM)
MIC [16]: 0.4 µg/mL (≈ 1.53 µM)
